Test results: BindingDB's records for doi:10.1016/s0014-5793(96)01132-5 (Cnrs Upr 9023, 1996)
“And” between values parts separate entries of the source, which are not always exact repeats. Identical values can stand only once. Counter-ions that a name gives are not always drawn.

These compounds were tested against 5-hydroxytryptamine receptor 4 (Mus musculus, UniProt P97288).
5-hydroxytryptamine receptor 4, sequence (P97288 whole entry): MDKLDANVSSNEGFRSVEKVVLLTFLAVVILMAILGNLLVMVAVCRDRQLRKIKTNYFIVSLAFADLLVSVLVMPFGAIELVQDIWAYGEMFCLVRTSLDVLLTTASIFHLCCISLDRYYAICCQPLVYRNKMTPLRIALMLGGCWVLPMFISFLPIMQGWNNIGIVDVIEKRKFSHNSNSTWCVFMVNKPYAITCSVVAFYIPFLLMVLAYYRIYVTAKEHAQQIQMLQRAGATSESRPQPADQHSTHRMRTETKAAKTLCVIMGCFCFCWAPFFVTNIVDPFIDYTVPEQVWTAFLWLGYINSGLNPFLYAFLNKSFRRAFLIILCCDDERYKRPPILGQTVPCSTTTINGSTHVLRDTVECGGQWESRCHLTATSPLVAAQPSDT
With `COc1ccc2[nH]c(=O)n(C(=O)OC3CC4CCC(C3)N4C)c2c1` (stereo not given) [DAU 6285] the Ki was 55 nM.
`CCN(CC)CCOC(=O)c1cc(Cl)c(N)cc1OC` [SDZ-205557] showed a Ki of 7.76 nM.
`COc1cc(N)c(Cl)cc1C(=O)NC1CCN(CCCC(=O)N2CCC(N(C)C)CC2)CC1OC` (stereo not given) [4-Amino-5-chloro-N-(1-{4-[4-(dimethylamino)-1-piperidinyl]-4-oxobutyl}-3-methoxy-4-piperidinyl)-2-methoxybenzamide] gave a Ki of 2.88 nM.
For `COc1cc(N)c(Cl)cc1C(=O)NC1CCN(CCCOc2ccc(F)cc2)CC1OC` (stereo not given) [4-amino-5-chloro-N-(1-(3-(4-fluorophenoxy)propyl)-3-methoxypiperidin-4-yl)-2-methoxybenzamide], the Ki was 32.4 nM.
`COc1ccc2[nH]cc(CCN)c2c1` [tryptamine, 5-Methoxy] was tested, and the Ki was 229 nM.
With `CCn1c(=O)n(C(=O)NC2CC3CCC(C2)N3C)c2ccccc21` (stereo not given) [BIMU 1] the Ki was 28.8 nM.
With `Cn1cc(C(=O)OCC2CCN(CCNS(C)(=O)=O)CC2)c2ccccc21` [GR 113808] the Ki was 0.2 nM.
In the case of `NCCc1c[nH]c2ccc(O)cc12` [[3H]-5-HT], the Ki is reported as 56.2 nM.
`COc1cc(N)c(Cl)cc1C(=O)NC1CCN2CCCC1C2` (stereo not given) [NSC_3035240] showed a Ki of 132 nM.
`CCN(CC)CCNC(=O)c1cc(Cl)c(N)cc1OC` [4-amino-5-chloro-N-[2-(diethylamino)ethyl]-2-methoxy-benzamide;hydrochloride] gave a Ki of 891 nM.
Work on `COc1[nH]c2ccc(F)cc2c1C(=O)OCC1CCN(CCNS(C)(=O)=O)CC1` [GR-125487] yielded a Ki of 0.02 nM.
`CN1C2CCC1CC(OC(=O)c1c[nH]c3ccccc13)C2` (stereo not given) showed a Ki of 87.1 nM.
With `CC(C)n1c(=O)n(C(=O)NC2C[C@H]3CC[C@@H](C2)N3C)c2ccccc21` (stereo not given in full) [BIMU 8] the Ki was 40.7 nM.
With `NCCc1c[nH]c2ccc(C(N)=O)cc12` [[3H]-5-carboxamidotryptamine] the Ki was > 10000 nM and 9770 nM.
`COc1cc(N)c(Cl)cc1C(=O)NC1CN2CCC1CC2` (stereo not given) [ZACOPRIDE,R] gave a Ki of 191 nM.
